In the assay the test system is Nestin^pos progenitor cells from clonal-derived c-kit^pos eCSCs. Kind of assay: neurogenic differentiation of Nestin^pos cells from clonal c-kit^pos eCSCs. Format: cell-based, rat. The following applies: differentiation medium, 7 days. The text has this:
It has been previously shown that cardiac side population cells that express the neural progenitor marker, Nestin, can be induced to differentiate into the ectoderm layer, producing neurons and glial cells (15). We then purified for a population of Nestin^pos progenitor cells from clonal-derived c-kit^pos eCSCs. When placed into differentiation medium supplemented with Retinoic Acid or LIF for 7 days, we found up-regulation of GFAP, MATH2/NeuroD6, a neuron specific transcription factor (FIG. 3C), β-3 tubulin arrayed in filaments and bundles (FIG. 3C), neuron-specific enolase (FIG. 3C), acetylcholintransferase (FIG. 3C), doublecortin (DCX), and S-100β (FIG. 3C). Furthermore, after RA differentiation, cells had characteristics of neuronal dendrites, indicating a morphological change that resembled neurons (FIG. 3C).

Turning to “LIF: supplement of the neural differentiation medium”, the “expression of neural markers (GFAP, MATH2/NeuroD6, β-3 tubulin and others)” value is recorded as “up-regulation”.

Values taken from patent publication US10526581B2, “Modulation of cardiac stem-progenitor cell differentiation, assays and uses thereof” (priority 2013, dated 2020).
